From PubChem BioAssay AID330 (DTP/NCI, 2004)
“And” between values parts separate entries of the source, which are not always exact repeats. Identical values can stand only once. Inconclusive results and toxic doses are left out. How the source made its calls: active means survival T/C of 150% or more; inactive means T/C below 125% in these data.

Tested on: P388 leukemia ip, CD2F1 mice, survival T/C
Assay: NCI In Vivo Anticancer Drug Screen. Data for tumor model P388 Leukemia (intraperitoneal) in CD2F1 (CDF1) mice
Conditions: endpoint: median survival time, higher = longer survival
Method in brief: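 Mice carrying the transplanted tumor received test compound or vehicle. Survival was recorded in each group, and the value is the treated-group measurement divided by that of the vehicle-treated control group.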

[1] = dose: 50.0 mg/kg/injection, schedule: Q01DX005 (ip), vehicle: Klucel (hydroxypropylcellulose) (HPC)
[2] = dose: 6.25 mg/kg/injection, schedule: Q01DX009 (ip), vehicle: saline
[3] = dose: 50.0 mg/kg/injection, schedule: Q01DX009 (ip), vehicle: saline
[4] = dose: 100.0 mg/kg/injection, schedule: Q01DX009 (ip), vehicle: saline
[5] = dose: 12.5 mg/kg/injection, schedule: Q01DX009 (ip), vehicle: Klucel (hydroxypropylcellulose) (HPC)
[6] = dose: 25.0 mg/kg/injection, schedule: Q01DX009 (ip), vehicle: Klucel (hydroxypropylcellulose) (HPC)
[7] = dose: 50.0 mg/kg/injection, schedule: Q01DX009 (ip), vehicle: Klucel (hydroxypropylcellulose) (HPC)
[8] = dose: 50.0 mg/kg/injection, schedule: Q01DX009 (ip), vehicle: saline with Tween-80
[9] = dose: 100.0 mg/kg/injection, schedule: Q01DX005 (ip), vehicle: Klucel (hydroxypropylcellulose) (HPC)
[10] = dose: 200.0 mg/kg/injection, schedule: Q01DX005 (ip), vehicle: Klucel (hydroxypropylcellulose) (HPC)
[11] = dose: 12.5 mg/kg/injection, schedule: Q01DX009 (ip), vehicle: saline with Tween-80
[12] = dose: 25.0 mg/kg/injection, schedule: Q01DX009 (ip), vehicle: saline with Tween-80

Measured: T/C

ClCc1nsc(Cl)n1
inactive: dose: 12.5 mg/kg/injection, schedule: Q01DX005 (ip), vehicle: Klucel (hydroxypropylcellulose) (HPC) 93 % of control | dose: 25.0 mg/kg/injection, schedule: Q01DX005 (ip), vehicle: Klucel (hydroxypropylcellulose) (HPC) 98 % of control | [1] 104 % of control and 93 % of control

CCN(CC)Cc1cc(C(=O)CC(c2ccccc2)S(=O)(=O)c2ccc(C)cc2)ccc1O (configuration not stated)
inactive: dose: 1.56 mg/kg/injection, schedule: Q01DX009 (ip), vehicle: saline 100 % of control | dose: 3.12 mg/kg/injection, schedule: Q01DX009 (ip), vehicle: saline 94 % of control | [2] 97 % of control | [3] 90 % of control

CC(=O)c1c(C)[nH]c2c1[nH]c1ccccc12
inactive: dose: 60.0 mg/kg/injection, schedule: Q01DX005 (ip), vehicle: Klucel (hydroxypropylcellulose) (HPC) 93 % of control | dose: 120.0 mg/kg/injection, schedule: Q01DX005 (ip), vehicle: Klucel (hydroxypropylcellulose) (HPC) 101 % of control

[Cu].c1ccc2c3[n-]c(c2c1)/N=c1\[n-]/c(c2ccccc12)=N\c1[n-]c(c2ccccc12)/N=c1\[n-]/c(c2ccccc12)=N\3
inactive: [3] 104 % of control | [4] 93 % of control

Cc1cccc(C(=O)N2C(=O)Cc3ccccc32)c1
inactive: dose: 100.0 mg/kg/injection, schedule: Q01DX001 (ip), vehicle: Klucel (hydroxypropylcellulose) (HPC) 99 % of control | dose: 200.0 mg/kg/injection, schedule: Q01DX001 (ip), vehicle: Klucel (hydroxypropylcellulose) (HPC) 94 % of control

Oc1c[nH]c(=S)s1
inactive: dose: 12.5 mg/kg/injection, schedule: Q01DX009 (ip), vehicle: other 112 % of control | dose: 25.0 mg/kg/injection, schedule: Q01DX009 (ip), vehicle: other 106 % of control | dose: 50.0 mg/kg/injection, schedule: Q01DX009 (ip), vehicle: other 111 % of control | dose: 100.0 mg/kg/injection, schedule: Q01DX009 (ip), vehicle: other 102 % of control | dose: 200.0 mg/kg/injection, schedule: Q01DX009 (ip), vehicle: other 117 % of control

O=C(O)CCCSC(=S)c1ccccc1
inactive: [5] 102 % of control | [6] 100 % of control | [7] 98 % of control and 105 % of control | dose: 200.0 mg/kg/injection, schedule: Q01DX009 (ip), vehicle: Klucel (hydroxypropylcellulose) (HPC) 101 % of control

O=[N+]([O-])c1cccnc1Sc1ccnc(Sc2ncccc2[N+](=O)[O-])n1
inactive: [8] 89 % of control | [3] 97 % of control | [4] 100 % of control and 96 % of control | dose: 200.0 mg/kg/injection, schedule: Q01DX009 (ip), vehicle: saline with Tween-80 89 % of control | dose: 200.0 mg/kg/injection, schedule: Q01DX009 (ip), vehicle: saline 89 % of control and 91 % of control

CCC(=O)NC(CC(C)C)C(=O)NC(CC(C)C)C(=O)NC(C=O)CCCN=C(N)N (configuration not stated) (tested in a mixture with another compound)
inactive: [2] 103 % of control | dose: 12.5 mg/kg/injection, schedule: Q01DX009 (ip), vehicle: saline 102 % of control and 104 % of control | dose: 25.0 mg/kg/injection, schedule: Q01DX009 (ip), vehicle: saline 104 % of control and 96 % of control | [3] 102 % of control and 108 % of control | [4] 110 % of control

COc1ccc(C(CC(=O)O)C(N)C(=O)O)cc1 (configuration not stated)
inactive: dose: 50.0 mg/kg/injection, schedule: Q01DX009 (ip), vehicle: suspension in saline 88 % of control | dose: 100.0 mg/kg/injection, schedule: Q01DX009 (ip), vehicle: suspension in saline 87 % of control | dose: 200.0 mg/kg/injection, schedule: Q01DX009 (ip), vehicle: suspension in saline 95 % of control

COc1ccc([N+]([O-])=NC#N)cc1
inactive: [5] 95 % of control | [6] 98 % of control | [7] 109 % of control | dose: 50.0 mg/kg/injection, schedule: Q04DX003 (ip), vehicle: Klucel (hydroxypropylcellulose) (HPC) 99 % of control | dose: 100.0 mg/kg/injection, schedule: Q04DX003 (ip), vehicle: Klucel (hydroxypropylcellulose) (HPC) 100 % of control

OCC(O)c1c(-c2ccc(Cl)cc2)c(-c2ccccc2)c2n1CCC2 (configuration not stated)
inactive: [1] 97 % of control | [9] 100 % of control | [10] 90 % of control

CC(C)CCSC1=CC(=O)c2ccccc2C1=O
inactive: dose: 3.13 mg/kg/injection, schedule: Q01DX009 (ip), vehicle: saline with Tween-80 99 % of control | dose: 6.25 mg/kg/injection, schedule: Q01DX009 (ip), vehicle: saline with Tween-80 109 % of control | [11] 109 % of control | [12] 114 % of control

CCCCN(CCCC)CCC(=O)c1ccc(OC)c2ccccc12
inactive: [11] 110 % of control | [12] 119 % of control | [8] 111 % of control

Cc1cc(C)nc(NS(=O)(=O)c2ccc(NC(=O)Nc3ccc([N+](=O)[O-])cc3Cl)cc2)n1
inactive: [7] 94 % of control | dose: 100.0 mg/kg/injection, schedule: Q01DX009 (ip), vehicle: Klucel (hydroxypropylcellulose) (HPC) 86 % of control

O=CN1CCCc2cc(C(=O)O)ccc21
inactive: dose: 50.0 mg/kg/injection, schedule: Q01DX001 (ip), vehicle: saline sonified 100 % of control | dose: 100.0 mg/kg/injection, schedule: Q01DX001 (ip), vehicle: saline sonified 100 % of control | dose: 200.0 mg/kg/injection, schedule: Q01DX001 (ip), vehicle: saline sonified 105 % of control

COc1ccc(C(Nc2ncccn2)c2cc(C(C)(C)C)cc(C(C)(C)C)c2O)cc1 (configuration not stated)
inactive: dose: 50.0 mg/kg/injection, schedule: Q01DX005 (ip), vehicle: distilled water + alcohol 101 % of control | dose: 100.0 mg/kg/injection, schedule: Q01DX005 (ip), vehicle: distilled water + alcohol 101 % of control | dose: 200.0 mg/kg/injection, schedule: Q01DX005 (ip), vehicle: distilled water + alcohol 97 % of control

C=C(C)C12CC(C)C34OC(/C=C/C=C/CCCCC)(OC1C3C1OC1(CO)C(O)C1(O)C(=O)C(C)=CC14)O2 (configuration not stated)
inactive: dose: 0.03 mg/kg/injection, schedule: Q01DX009 (ip), vehicle: distilled water + alcohol 96 % of control | dose: 0.06 mg/kg/injection, schedule: Q01DX009 (ip), vehicle: distilled water + alcohol 102 % of control | dose: 0.12 mg/kg/injection, schedule: Q01DX009 (ip), vehicle: distilled water + alcohol 98 % of control | dose: 0.25 mg/kg/injection, schedule: Q01DX009 (ip), vehicle: distilled water + alcohol 106 % of control | dose: 0.5 mg/kg/injection, schedule: Q01DX009 (ip), vehicle: distilled water + alcohol 98 % of control | dose: 1.0 mg/kg/injection, schedule: Q01DX009 (ip), vehicle: distilled water + alcohol 108 % of control

OCC1(C2CCCNC2)OCCO1 (configuration not stated)
inactive: dose: 25.0 mg/kg/injection, schedule: Q01DX005 (ip), vehicle: saline 100 % of control | dose: 50.0 mg/kg/injection, schedule: Q01DX005 (ip), vehicle: saline 111 % of control and 97 % of control | dose: 100.0 mg/kg/injection, schedule: Q01DX005 (ip), vehicle: saline 107 % of control | dose: 200.0 mg/kg/injection, schedule: Q01DX005 (ip), vehicle: saline 108 % of control

CN(C)c1nc(N(C)C)nc(N(C)C=O)n1
inactive: dose: 100.0 mg/kg/injection, schedule: Q01DX001 (ip), vehicle: saline 99 % of control | dose: 200.0 mg/kg/injection, schedule: Q01DX001 (ip), vehicle: saline 97 % of control | dose: 400.0 mg/kg/injection, schedule: Q01DX001 (ip), vehicle: saline 100 % of control

CC1C(c2ccc3c(c2)OCO3)CC(Cl)CC12C=C1OCOC1=CC2=O (configuration not stated)
inactive: dose: 8.75 mg/kg/injection, schedule: Q01DX005 (ip), vehicle: Klucel (hydroxypropylcellulose) (HPC) 101 % of control | dose: 17.5 mg/kg/injection, schedule: Q01DX005 (ip), vehicle: Klucel (hydroxypropylcellulose) (HPC) 101 % of control | dose: 35.0 mg/kg/injection, schedule: Q01DX005 (ip), vehicle: Klucel (hydroxypropylcellulose) (HPC) 105 % of control

CCS(=O)(=O)c1ncnc2nc[nH]c12
inactive: [1] 100 % of control | [9] 102 % of control | [10] 100 % of control
